# Assay results taken from ChEMBL document CHEMBL1157236, “A reassignment of (-)-mycothiazole and the isolation of a related diol” (2006).
# How the values were obtained:
# [1] = test system: XF498; assay: Growth inhibition of human XF498 cells; format: functional
# [2] = test system: BT-549; assay: Growth inhibition of human BT549 cells; format: functional
# [3] = test system: NCI-H23; assay: Growth inhibition of human NCI-H23 cells; format: functional
# [4] = test system: DMS-114; assay: Growth inhibition of human DMS114 cells; format: functional
# [5] = test system: DMS-273; assay: Growth inhibition of human DMS273 cells; format: functional
# [6] = test system: MDA-N; assay: Growth inhibition of human MDA-N cells; format: functional
# [7] = test system: SNB-75; assay: Growth inhibition of human SNB75 cells; format: functional
# [8] = test system: SR; assay: Growth inhibition of human SR cells; format: functional
# [9] = test system: KM-20L2; assay: Growth inhibition of human KM20L2 cells; format: functional
# [10] = test system: ACHN; assay: Growth inhibition of human ACHN cells; format: functional
# [11] = test system: MDA-MB-435; assay: Growth inhibition of human MDA-MB-435 cells; format: functional
# [12] = test system: NCI-H322M; assay: Growth inhibition of human NCI-H322M cells; format: functional
# [13] = test system: MOLT-4; assay: Growth inhibition of human MOLT4 cells; format: functional
# [14] = test system: SNB-19; assay: Growth inhibition of human SNB19 cells; format: functional; settings: SNB-19, read-out: pGI50 (converted)
# [15] = test system: NCI-H460; assay: Growth inhibition of human NCI-H460 cells; format: functional
# [16] = test system: A498; assay: Growth inhibition of human A498 cells; format: functional
# [17] = test system: UACC-257; assay: Growth inhibition of human UACC257 cells; format: functional
# [18] = test system: SF-268; assay: Growth inhibition of human SF268 cells; format: functional
# [19] = test system: DLD-1; assay: Growth inhibition of human DLD1 cells; format: functional
# [20] = test system: NCI-H226; assay: Growth inhibition of human NCI-H226 cells; format: functional; settings: NCI-H226, read-out: pGI50 (converted)
# [21] = test system: 786-0; assay: Growth inhibition of human 786-0 cells; format: functional; settings: 786-0, read-out: pGI50 (converted)
# [22] = test system: NCI-H522; assay: Growth inhibition of human NCI-H522 cells; format: functional
# [23] = Growth inhibition of human OVACR4 cells; format: functional
# [24] = test system: U-251; assay: Growth inhibition of human U251 cells; format: functional
# [25] = test system: LOX IMVI; assay: Growth inhibition of human LOX IMVI cells; format: functional
# [26] = test system: DU-145; assay: Growth inhibition of human DU145 cells; format: functional; settings: DU-145, read-out: pGI50 (converted)
# [27] = test system: SK-MEL-28; assay: Growth inhibition of human SK-MEL-28 cells; format: functional
# [28] = test system: MCF7; assay: Growth inhibition of human MCF7 cells; format: functional; settings: MCF7, read-out: pGI50 (converted)
# [29] = test system: SN12C; assay: Growth inhibition of human SN12C cells; format: functional; settings: read-out: pGI50 (converted)
# [30] = test system: M14; assay: Growth inhibition of human M14 cells; format: functional
# [31] = test system: RXF 393; assay: Growth inhibition of human […] cells; format: functional
# [32] = test system: M19-MEL; assay: Growth inhibition of human M19-MEL cells; format: functional
# [33] = test system: IGROV-1; assay: Growth inhibition of human IGROV1 cells; format: functional
# [34] = test system: HCC 2998; assay: Growth inhibition of human HCC2998 cells; format: functional; settings: HCC 2998, read-out: pGI50 (converted)
# [35] = Growth inhibition of human RXF631 cells; format: functional; settings: RXF 631, read-out: pGI50 (converted)
# [36] = test system: TK-10; assay: Growth inhibition of human TK10 cells; format: functional; settings: TK-10, read-out: pGI50 (converted)
# [37] = test system: CAKI-1; assay: Growth inhibition of human CAKI1 cells; format: functional
# [38] = test system: HCT-15; assay: Growth inhibition of human HCT15 cells; format: functional
# [39] = Growth inhibition of human LXFL529 cells; format: functional; settings: LXFL 529
# [40] = test system: EKVX; assay: Growth inhibition of human EKVX cells; format: functional
# [41] = test system: HOP-62; assay: Growth inhibition of human HOP62 cells; format: functional; settings: HOP-62, read-out: pGI50 (converted)
# [42] = test system: T47D; assay: Growth inhibition of human T47D cells; format: functional; settings: read-out: pGI50 (converted)
# [43] = test system: HCT-116; assay: Growth inhibition of human HCT116 cells; format: functional
# [44] = Growth inhibition of human […] cells; format: functional
# [45] = test system: L1210; assay: Selectivity for mouse C38 cells over mouse L1210 cells; format: functional
# [46] = Growth inhibition of human OVACR8 cells; format: functional
# [47] = test system: A549; assay: Growth inhibition of human A549 cells; format: functional
# [48] = test system: Hs-578T; assay: Growth inhibition of human HS578T cells; format: functional; settings: read-out: pGI50 (converted)
# [49] = test system: SK-MEL-5; assay: Growth inhibition of human SK-MEL-5 cells; format: functional
# [50] = test system: PC-3; assay: Growth inhibition of human PC3 cells; format: functional; settings: PC-3, read-out: pGI50 (converted)
# [51] = test system: SF-295; assay: Growth inhibition of human SF295 cells; format: functional
# [52] = test system: SK-OV-3; assay: Growth inhibition of human SK-OV-3 cells; format: functional
# [53] = test system: UO-31; assay: Growth inhibition of human UO31 cells; format: functional
# [54] = test system: K562; assay: Growth inhibition of human K562 cells; format: functional
# [55] = test system: UACC-62; assay: Growth inhibition of human UACC62 cells; format: functional
# [56] = test system: NCI/ADR-RES; assay: Growth inhibition of human NCI/ADR-RES cells; format: functional
# [57] = test system: SW-620; assay: Growth inhibition of human SW620 cells; format: functional
# [58] = Growth inhibition of human OVACR5 cells; format: functional; settings: OVACR5, read-out: pGI50 (converted)
# [59] = test system: COLO 205; assay: Growth inhibition of human COLO205 cells; format: functional
# [60] = test system: HT-29; assay: Growth inhibition of human HT29 cells; format: functional
# [61] = test system: Malme-3M; assay: Growth inhibition of human MALME3M cells; format: functional; settings: read-out: pGI50 (converted)
# [62] = Growth inhibition of human OVACR3 cells; format: functional
# [63] = test system: KM12; assay: Growth inhibition of human KM12 cells; format: functional
# [64] = test system: SF-539; assay: Growth inhibition of human SF539 cells; format: functional; settings: SF-539, read-out: pGI50 (converted)
# [65] = test system: CCRF-CEM; assay: Growth inhibition of human CCRF-CEM cells; format: functional
# [66] = Growth inhibition of human HL60(TB) cells; format: functional, HL-60(TB); settings: HL-60
# [67] = test system: HOP-92; assay: Growth inhibition of human HOP92 cells; format: functional
# [68] = test system: SK-MEL-2; assay: Growth inhibition of human SK-MEL-2 cells; format: functional; settings: SK-MEL-2, read-out: pGI50 (converted)
structure (smiles),measurement,setting,value
C=CC/C=C\Cc1csc(C(C)(C)[C@H](O)C/C=C\C(=C)CCNC(=O)OC)n1 [MYCOTHIAZOLE],GI50,[1],50.1 µM
same,GI50,[2],3.16 µM
same,GI50,[3],0.251 µM
same,GI50,[4],0.0126 µM
same,GI50,[5],3.16 µM
same,GI50,[6],50.1 µM
same,GI50,[7],39.8 µM
same,GI50,[8],0.501 µM
same,GI50,[9],50.1 µM
same,GI50,[10],50.1 µM
same,GI50,[11],50.1 µM
same,GI50,[12],15.8 µM
same,GI50,[13],39.8 µM
same,GI50,[14],> 100 µM
same,GI50,[15],31.6 µM
same,GI50,[16],63.1 µM
same,GI50,[17],1.58 µM
same,GI50,[18],79.4 µM
same,GI50,[19],79.4 µM
same,GI50,[20],> 100 µM
same,GI50,[21],> 100 µM
same,GI50,[22],20 µM
same,GI50,[23],63.1 µM
same,GI50,[24],79.4 µM
same,GI50,[25],39.8 µM
same,GI50,[26],> 100 µM
same,GI50,[27],79.4 µM
same,GI50,[28],> 100 µM
same,GI50,[29],> 100 µM
same,GI50,[30],39.8 µM
same,GI50,[31],63.1 µM
same,GI50,[32],25.1 µM
same,GI50,[33],31.6 µM
same,GI50,[34],> 100 µM
same,GI50,[35],> 100 µM
same,GI50,[36],> 100 µM
same,GI50,[37],63.1 µM
same,GI50,[38],39.8 µM
same,GI50,[39],20 µM
same,GI50,[40],25.1 µM
same,GI50,[41],> 100 µM
same,GI50,[42],> 100 µM
same,GI50,[43],0.631 µM
same,GI50,[44],31.6 µM
same,Selectivity Index,[45],3
same,GI50,[46],79.4 µM
same,GI50,[47],39.8 µM
same,GI50,[48],> 100 µM
same,GI50,[49],1.26 µM
same,GI50,[50],> 100 µM
same,GI50,[51],1.26 µM
same,GI50,[52],79.4 µM
same,GI50,[53],79.4 µM
same,GI50,[54],0.794 µM
same,GI50,[55],39.8 µM
same,GI50,[56],79.4 µM
same,GI50,[57],25.1 µM
same,GI50,[58],> 100 µM
same,GI50,[59],63.1 µM
same,GI50,[60],50.1 µM
same,GI50,[61],> 100 µM
same,GI50,[62],25.1 µM
same,GI50,[63],63.1 µM
same,GI50,[64],> 100 µM
same,GI50,[65],31.6 µM
same,GI50,[66],10 µM
same,GI50,[67],20 µM
same,GI50,[68],> 100 µM
